Patent US20260144796A1, “Compounds and Methods for Improving Health” (Acurx Pharmaceuticals, Inc., priority 2022, published 2026)
Values after ≈ are worked out from the molar mass of the structure shown. Where two headings read alike, the source gives them in different places.

How the values were obtained:
[1] = tested on: C. difficile infection (CDI); test: Phase 2a CDI clinical trial, clinical outcome and safety; assay type: in vivo, human
Method: Phase 2a of this trial was an open label cohort of 10 subjects from study centers in the United States. In this cohort, 10 patients with diarrhea caused by mild or moderate C. difficile diagnosed via toxin EIA+ were treated with ibezapolstat 450 mg orally, twice daily for 10 days. […] Stool was collected during course of therapy and at follow up. Patient fecal samples were evaluated for C. difficile culture and microbiome changes. […] Favorable microbiome changes included overgrowth of Actinobacteria and Firmicutes phylum species while on therapy. These findings support that microbiome effects may be predictive of beneficial patient outcomes including low rates of recurrence. […] Safety evaluations included AE assessment, physical examination, vital signs, clinical laboratory tests (chemistry, hematology, and urinalysis), and electrocardiogramaty endpoints for all subjects were recorded including nature, frequency, and severity of AEs. AEs were assessed at each visit beginning from the time of enrollment and classified according to the Medical Dictionary for Regulatory Activities (MedDRA version 15.0). AE severity (mild, moderate, or severe) and causality (unrelated, possibly related, or probably related to the study medication) were assessed by the investigator at each site. Stool samples were cultured for C. difficile growth on a selective cycloserine-cefoxitin fructose agar (CCFA) at 37° C. under anaerobic conditions for 48 hours. (Gonzales-Luna A J, Carlson T J. Dotson K M, et al. […] Emerg Microbes Infect 2020; 9(1): 341-7). Isolates were determined to be C. difficile based on growth and morphology and confirmed by PCR for C. difficile toxin and tpi genes. C. difficile was strain typed using a PCR-based ribotyping method as previously described (Gonzales-Luna A J, Carlson T J, Dotson K M, et al. […] Emerg Microbes Infect 2020; 9(1):341-7). Minimum inhibitory concentrations (MICs) were determined for ibezapolstat by broth microdilution in 0.1% sodium taurocholate Brain Heart Infusion (BHI) media (Begum K, Basseres E, Miranda J. et al. […] Antimicrob Agents Chemother 2020; 64(8)). An intent-to-treat analysis of patients receiving at least one dose of ibezapolstat was conducted. Descriptive statistics were calculated for efficacy, safety/tolerability, and PK data generated using SAS version 9.4 software (SAS Institute, Inc Cary, NC, USA). Microbiome summary plots and data visualization was prepared using R software version 4.1.1 (R Core Team 2021, Vienna, Austria). (R Core Team (2013). R: A language and environment for statistical computing. R Foundation for Statistical Computing, Vienna, Austria.

[2] = tested on: flagellar genes fliA, flgB, fliC in C. difficile strain CD 630; test: Flagellar gene expression by qRT-PCR
[3] = tested on: Enterococcus durans; test: MIC determination, stool Firmicute isolates; assay type: cell-based

**Q.** With `O=c1[nH]c(NCc2ccc(Cl)c(Cl)c2)nc2ncn(CCN3CCOCC3)c12` [Ibezapolstat, 2-((3,4-dichlorobenzyl)amino)-7-(2-morpholinoethyl)-1,7-dihydro-6H-purin-6-one] as the molecule, how does the adverse event profile ([1]; 10 CDI patients, 450 mg orally twice daily 10 days) read?
**A.** Its adverse event profile is “acceptable adverse event profile”.

**Q.** What about the clinical cure ([1]; 10 CDI patients, 450 mg orally twice daily 10 days, at day 12) of the same molecule?
**A.** Its clinical cure is 100%.

**Q.** And the sustained clinical cure ([1]; 10 CDI patients, 450 mg orally twice daily 10 days, at day 38)?
**A.** The sustained clinical cure was 100%.

**Q.** And the success rate ([1]; Phase 2a CDI clinical trial)?
**A.** Its success rate is 100%.

**Q.** And the “eradication of colonic C. difficile” value ([1]; by day three of treatment)?
**A.** Its value is “complete eradication”.

**Q.** And the recurrences of infection ([1]; followed for recurrence for 28±2 days)?
**A.** Its recurrences of infection is “no recurrences”.

**Q.** What about the “reduction in motility and flagellar genes” value ([2]; 4-hour treatment with 0.25×MIC) of the same molecule?
**A.** The value was “up to 50%”.

**Q.** And the “flgB expression decreased versus non-treated control” value ([2]; CD 630, 0.5×MIC, 4 hours)?
**A.** The value was “about 30%”.

**Q.** And the “fliA expression attenuated versus non-treated control” value ([2]; CD 630, 0.5×MIC, 4 hours)?
**A.** Its value is “about 60%”.

**Q.** And the “fliC expression decreased versus non-treated control” value ([2]; CD 630, 0.5×MIC, 4 hours)?
**A.** The value was “about 80%”.

**Q.** What about the “decrease overall in flagellar gene expression” value ([2]; CD 630, sub-MIC (0.5×MIC), 4 hours, gluD control) of the same molecule?
**A.** The value was 2-to-5 fold.

**Q.** What about the MIC50 ([3]; N=1) of the same molecule?
**A.** The MIC50 was 100 µg/mL (≈ 236 µM).

**Q.** What about the MIC ([3]; N=1, read-out: MIC Max) of the same molecule?
**A.** Its MIC is 100 µg/mL (≈ 236 µM).

**Q.** And the MIC ([3]; N=1, read-out: MIC Min)?
**A.** Its MIC is 100 µg/mL (≈ 236 µM).
